Laboratory results published in publication PMC2365111, “Cytotoxicity of Poly(Phenolic)Sulfonates and Their Sodium Salts in L1210 Lymphoid Leukemia Cells” (Metal-Based Drugs, 1998).

Columns and labels:
[1] = target: T1, Aspartate transcarbamylase (Mus musculus, UniProt B2RQC6); assay: Aspartate transcarbamylase activity, L1210; assay type: biochemical; settings: 60 min, N=6
T1 construct: preparing the appropriate L1210 cell homogenates or subcellular fractions; endogenous in cells; host or cells: L1210 murine lymphoid leukemia cells, homogenate or subcellular fraction
Description: (§1) CYTOTOXlCITY OF POLY(PHENOLIC)SULFONATES AND THEIR SODIUM SALTS IN L1210 LYMPHOID LEUKEMIA CELLS Fei Wang, Amy E. Warren, Cheryl R. Barnes and Iris H. Hall* Division of Medicinal Chemistry and Natural Products University of North Carolina Chapel Hill, N.C. […] Because ofthese properties it was surmised that these poly(phenolic)sulfonated compounds may have antineoplastic activity. METHODS Source of Compounds Test compounds were supplied by GeneLabs, Inc. [Redwood City, CA [Table 1]. Radioisotopes were obtained from New England Nuclear [Dupont, Boston, MA]. Substrates and co-factors were purchased om Sigma Chemical Co., [St Louis, MO]. Pentosan sulfate and other antineoplastic standards were obtained from Sigma Chemical Co. Tumor lines were obtained from American Type Culture Collection [Rockville, MD]. 147 Vol. 5, No. 3, 1998 Cytotoxicity ofSodium Poly(Phenolic)Sulfonates in L1210 Lymphoid Leukemia Cells Table 1 Structures of Poly(phenolic)sulfonate Compounds O2R" n Compound R' R" n MW # G1-2041 H OH 8 1489.46 G1-2029 H OH 6 1117.09 G1-2030 H OH 4 744.73 GI-2021 CH3 ONa 8 1777.5 G1-2057 CH3 ONa 4 888.75 GI-2158 CH3 ONa 6 1333.13 GI-2063 OCH3 ONa 8 2001.65 G1-2042 OAc ONa 8 2017.73 Cytotoxicity Poly(phenolic)sulfonates were tested for cytotoxic activity by homogenizing drug in 0.05% Tween 80/H20 to give a mg/ml stock concentration. These solutions were sterilized by passing them through an acrodisc ([…]). The following cell lines were maintained by literature techniques: murine L1210 lymphoid leukemia, P-388 lymphocytic leukemia, rat UMR 106 osteosarcoma, human Tmolt3 acute lymphoblastic T cell leukemia, HUT-8 lymphoma, HeLa-S suspended cervical carcinoma, HeLa solid cervical carcinoma, KB epidermoid nasopharynx, A431 epidermoid carcinoma, colorectal adenocarcinoma SW480, HCT-8 ileocecal adenocarcinoma, lung bronchogenic MB-9812, A549 lung carcinoma, and glioma HS683. Geran et al.'s protocol was used to assess the cytotoxicity of the compounds and standards in each cell line. Cell numbers were determined by the trypan blue exclusion technique. Solid tumor cytotoxicity was determined by Leibovitz et al. 's method utilizing crystal violeeOH and read at 562 nm (Molecular Devices). Values for cytotoxicity were expressed as EDs0 g/ml, i.e. the concentration ofthe compound inhibiting 50% ofcell growth. A value of less than 4 µg/ml was required for significant activity ofgrowth inhibition. Incorporation Studies Incorporation of labeled precursors into 3H-DNA, 3H -RNA and 3H -protein for 10 L1210 cells was obtained. The concentration response for inhibition of DNA, RNA and protein synthesis of the compounds at 25, 50 and 100 l.tM was determined for 60 min incubations. Incorporation of 14C -glycine (53.0 mCi/mmol) into purines was obtained by the method of Cadman et al.[12]. Incorporation of 4C- formate (53.0 mCi/mmol) into pyrimidines was determined by the method of Christopherson et al.[13]. Enzyme Assays Inhibition of various enzyme activities was performed by first preparing the appropriate L1210 cell homogenates or subcellular fractions, then adding the drug to be tested during the enzyme assay. For the concentration response studies, inhibition of enzyme activity was determined at 25, 50 and 100 l.tM of compounds G1-2021, G1-2029, GI-2041 and G1-2063 after 60 min incubations. DNA polymerase Ot activity was determined in cytoplasmic extracts isolated by Eichler et aL's method. The DNA polymerase assay was described by Sedwick et al.[15] using 3H-TTP. Messenger-, ribosomal- and transfer-RNA polymerase enzymes were isolated with different concentrations of ammonium sulfate; individual RNA polymerase activities were determined using 3H -UTP 16,17]. Ribonucleoside reductase activity was measured using 4C -CDP with dithioerythritol. The deoxyribonucleotides 4C -dCDP were separated from the ribonucleotides by TLC on PEI plates. […]

L1210 protein synthesis = assay: Incorporation of labeled precursor into protein; assay type: cell-based, mouse; settings: 60 min, N=6
Description: as §1

PRPP amido transferase = target: T2, PRPP amido transferase (Mus musculus, UniProt Q8CIH9); assay: PRPP amidotransferase activity, L1210; assay type: biochemical; settings: 60 min, N=6
T2 construct: preparing the appropriate L1210 cell homogenates or subcellular fractions; endogenous in cells; host or cells: L1210 murine lymphoid leukemia cells, homogenate or subcellular fraction
Description: as §1, with “Enzyme Assays Inhibition of various enzyme activities was performed by first preparing the appropriate L1210 cell homogenates or subcellular fractions, then adding the drug to be tested during the enzyme assay. For the concentration response studies, inhibition of enzyme activity was determined at 25, 50 and 100 l.tM of compounds G1-2021, G1-2029, GI-2041 and G1-2063 after 60 min incubations.” left out, “The DNA polymerase assay was described by Sedwick et al.[15] using 3H-TTP.” left out, “dithioerythritol.” for “dithioerythritol. The deoxyribonucleotides 4C -dCDP were separated from the ribonucleotides by TLC on PEI plates.”

Dihydrofolate reductase = target: T3, Dihydrofolate reductase (Mus musculus, UniProt P00375); assay: Dihydrofolate reductase activity, L1210; assay type: biochemical; settings: for Dihydrofolate reductase: 60 min, N=6
T3 construct: preparing the appropriate L1210 cell homogenates or subcellular fractions; endogenous in cells; host or cells: L1210 murine lymphoid leukemia cells, homogenate or subcellular fraction
T3 sequence (P00375 1-187): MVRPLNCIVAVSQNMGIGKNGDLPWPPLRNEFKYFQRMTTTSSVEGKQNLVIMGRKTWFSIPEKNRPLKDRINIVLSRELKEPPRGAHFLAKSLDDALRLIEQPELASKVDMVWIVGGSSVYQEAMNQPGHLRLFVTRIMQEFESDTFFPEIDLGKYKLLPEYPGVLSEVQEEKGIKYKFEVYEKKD
Description: as §1

[2] = test system: L1210 de novo pyrimidine synthesis; assay: 14C-formate incorporation into pyrimidines; assay type: cell-based, mouse; settings: 60 min, N=6
Description: as §1

[3] = test system: murine L1210 lymphoid leukemia; assay type: cell-based, mouse; settings: for ED50 converted to: converted from μg/ml
Description: as §1

[4] = test system: Thymidine diphosphate kinase; assay: TDP kinase activity, L1210; assay type: biochemical, mouse; settings: 60 min, N=6
Description: as §1

[5] = target: T4, Carbamyl phosphate synthetase (Mus musculus, UniProt B2RQC6); assay: Carbamyl phosphate synthetase activity, L1210; assay type: biochemical; settings: 60 min, N=6
T4 construct: preparing the appropriate L1210 cell homogenates or subcellular fractions; endogenous in cells; host or cells: L1210 murine lymphoid leukemia cells, homogenate or subcellular fraction
Description: as §1

L1210 d[NTP] pool levels = assay: Deoxyribonucleoside triphosphate pool levels; assay type: cell-based, mouse; settings: 100 μM, 60 min, N=6
Description: as §1

tRNA polymerase = assay: Transfer-RNA polymerase activity, L1210; assay type: biochemical, mouse; settings: 60 min, N=6
Description: as §1

L1210 DNA synthesis = assay: Incorporation of labeled precursor into DNA; assay type: cell-based, mouse; settings: 60 min, N=6
Description: as §1

IMP dehydrogenase = IMP dehydrogenase activity, L1210; assay type: biochemical, mouse; settings: 60 min, N=6
Description: as §1, with “Enzyme Assays Inhibition of various enzyme activities was performed by first preparing the appropriate L1210 cell homogenates or subcellular fractions, then adding the drug to be tested during the enzyme assay. For the concentration response studies, inhibition of enzyme activity was determined at 25, 50 and 100 l.tM of compounds G1-2021, G1-2029, GI-2041 and G1-2063 after 60 min incubations.” left out, “The DNA polymerase assay was described by Sedwick et al.[15] using 3H-TTP.” left out, “dithioerythritol.” for “dithioerythritol. The deoxyribonucleotides 4C -dCDP were separated from the ribonucleotides by TLC on PEI plates.”

T2 sequence (Q8CIH9 12-517): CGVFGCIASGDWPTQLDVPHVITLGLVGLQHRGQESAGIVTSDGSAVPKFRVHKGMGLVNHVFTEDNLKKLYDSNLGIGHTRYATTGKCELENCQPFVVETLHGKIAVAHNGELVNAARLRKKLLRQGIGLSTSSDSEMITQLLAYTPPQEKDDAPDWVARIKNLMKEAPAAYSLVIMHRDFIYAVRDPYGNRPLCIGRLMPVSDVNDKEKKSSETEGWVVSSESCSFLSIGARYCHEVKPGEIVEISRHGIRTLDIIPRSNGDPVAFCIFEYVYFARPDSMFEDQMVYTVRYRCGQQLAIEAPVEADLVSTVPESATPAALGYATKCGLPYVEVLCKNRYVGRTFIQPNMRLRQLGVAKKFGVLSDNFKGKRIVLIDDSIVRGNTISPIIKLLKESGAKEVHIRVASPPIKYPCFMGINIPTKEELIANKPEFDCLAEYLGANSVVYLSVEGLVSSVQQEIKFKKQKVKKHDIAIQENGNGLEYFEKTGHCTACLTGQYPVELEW
T1 sequence (B2RQC6 whole entry): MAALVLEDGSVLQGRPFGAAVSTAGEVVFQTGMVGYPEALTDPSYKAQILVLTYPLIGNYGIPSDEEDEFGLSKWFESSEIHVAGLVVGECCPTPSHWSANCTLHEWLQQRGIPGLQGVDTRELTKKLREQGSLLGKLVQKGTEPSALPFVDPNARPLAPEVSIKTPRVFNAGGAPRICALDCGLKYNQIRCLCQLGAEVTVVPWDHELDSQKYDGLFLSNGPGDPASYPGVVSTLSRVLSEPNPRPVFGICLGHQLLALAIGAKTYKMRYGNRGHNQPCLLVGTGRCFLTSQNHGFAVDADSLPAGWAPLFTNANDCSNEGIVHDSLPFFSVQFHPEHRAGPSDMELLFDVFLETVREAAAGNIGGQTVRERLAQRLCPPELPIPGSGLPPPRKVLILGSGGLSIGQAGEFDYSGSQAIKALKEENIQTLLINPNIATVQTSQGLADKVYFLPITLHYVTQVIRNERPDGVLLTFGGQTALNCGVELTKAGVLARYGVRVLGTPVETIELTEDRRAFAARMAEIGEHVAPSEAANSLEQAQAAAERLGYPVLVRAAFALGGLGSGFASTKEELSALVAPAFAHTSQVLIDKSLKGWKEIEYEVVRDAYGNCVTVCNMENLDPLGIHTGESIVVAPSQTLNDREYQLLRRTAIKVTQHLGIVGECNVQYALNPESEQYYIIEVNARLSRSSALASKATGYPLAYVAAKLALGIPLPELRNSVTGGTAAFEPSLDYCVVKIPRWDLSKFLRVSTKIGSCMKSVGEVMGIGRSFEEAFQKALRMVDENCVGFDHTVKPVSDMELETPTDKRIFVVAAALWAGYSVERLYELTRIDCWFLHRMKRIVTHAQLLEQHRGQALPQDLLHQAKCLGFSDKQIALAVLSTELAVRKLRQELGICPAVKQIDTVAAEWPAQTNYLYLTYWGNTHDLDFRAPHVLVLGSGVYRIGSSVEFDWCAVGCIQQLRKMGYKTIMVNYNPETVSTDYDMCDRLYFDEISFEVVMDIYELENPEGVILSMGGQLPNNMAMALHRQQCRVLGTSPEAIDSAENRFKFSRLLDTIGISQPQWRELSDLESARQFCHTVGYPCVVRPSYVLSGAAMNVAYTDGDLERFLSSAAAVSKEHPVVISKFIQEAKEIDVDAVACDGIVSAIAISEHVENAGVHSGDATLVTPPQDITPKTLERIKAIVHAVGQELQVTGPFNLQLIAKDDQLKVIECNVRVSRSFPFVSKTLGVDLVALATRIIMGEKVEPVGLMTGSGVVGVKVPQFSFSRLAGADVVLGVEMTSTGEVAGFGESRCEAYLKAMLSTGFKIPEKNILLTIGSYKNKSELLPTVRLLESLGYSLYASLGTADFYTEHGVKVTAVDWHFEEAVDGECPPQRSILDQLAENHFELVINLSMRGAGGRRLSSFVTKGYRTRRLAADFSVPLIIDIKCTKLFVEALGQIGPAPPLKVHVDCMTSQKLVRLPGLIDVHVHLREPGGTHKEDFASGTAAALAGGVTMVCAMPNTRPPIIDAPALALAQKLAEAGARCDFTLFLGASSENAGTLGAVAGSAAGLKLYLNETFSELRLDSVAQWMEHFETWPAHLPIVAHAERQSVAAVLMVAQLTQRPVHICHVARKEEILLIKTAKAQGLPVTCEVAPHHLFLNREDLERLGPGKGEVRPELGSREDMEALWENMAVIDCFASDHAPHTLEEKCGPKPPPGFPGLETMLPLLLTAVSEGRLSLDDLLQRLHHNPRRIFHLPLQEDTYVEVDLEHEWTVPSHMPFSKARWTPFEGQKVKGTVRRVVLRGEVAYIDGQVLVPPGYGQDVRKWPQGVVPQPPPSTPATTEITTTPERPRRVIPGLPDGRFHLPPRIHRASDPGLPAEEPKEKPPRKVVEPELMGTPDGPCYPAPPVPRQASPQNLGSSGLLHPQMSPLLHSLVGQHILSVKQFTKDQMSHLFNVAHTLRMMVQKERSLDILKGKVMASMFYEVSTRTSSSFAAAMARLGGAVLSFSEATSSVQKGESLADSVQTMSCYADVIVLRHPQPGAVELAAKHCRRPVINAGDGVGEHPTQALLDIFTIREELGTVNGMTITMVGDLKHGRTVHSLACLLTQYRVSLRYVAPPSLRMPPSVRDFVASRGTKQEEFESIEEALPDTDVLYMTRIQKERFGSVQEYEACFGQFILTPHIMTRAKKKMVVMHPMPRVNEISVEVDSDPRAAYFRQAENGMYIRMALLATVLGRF
T4 sequence (B2RQC6 whole entry): as above

SMILES	Aspartate transcarbamylase ([1]; 25 μM)	Aspartate transcarbamylase ([1]; 100 μM)	Protein synthesis (L1210 protein synthesis; 50 μM)	Protein synthesis (L1210 protein synthesis; 100 μM)	PRPP amido transferase (PRPP amido transferase; 50 μM)	Dihydrofolate reductase (Dihydrofolate reductase; 100 μM)	Pyrimidine de novo synthesis ([2]; 25 μM)	Pyrimidine de novo synthesis ([2]; 50 μM)	cytotoxic activity, in words [3]	ED50 converted to [3]	Thymidine diphosphate kinase ([4]; 25 μM)	Thymidine diphosphate kinase ([4]; 50 μM)	Thymidine diphosphate kinase ([4]; 100 μM)	Carbamyl phosphate synthetase ([5]; 25 μM)	Carbamyl phosphate synthetase ([5]; 50 μM)	d(ATP) (L1210 d[NTP] pool levels)	d(TTP) (L1210 d[NTP] pool levels)	tRNA polymerase (tRNA polymerase; 25 μM)	DNA synthesis (L1210 DNA synthesis; 50 μM)	IMP dehydrogenase (IMP dehydrogenase; 25 μM)	also measured
O=S(=O)(O)c1cc2c(O)c(c1)Cc1cc(S(=O)(=O)O)cc(c1O)Cc1cc(S(=O)(=O)O)cc(c1O)Cc1cc(S(=O)(=O)O)cc(c1O)Cc1cc(S(=O)(=O)O)cc(c1O)Cc1cc(S(=O)(=O)O)cc(c1O)Cc1cc(S(=O)(=O)O)cc(c1O)Cc1cc(S(=O)(=O)O)cc(c1O)C2 [GI-2041]	106+5% of Control	94+5% of Control	70+3% of Control	70+3% of Control	38+3% of Control	92+5% of Control	112+6% of Control	97+5% of Control	most potent activity	1263 nM	89+5% of Control	64+5% of Control	54+3% of Control	142+6% of Control	82+5% of Control	62+ 5% of Control	89+6% of Control	108+6% of Control	84+5% of Control	131+6% of Control	PRPP amido transferase (PRPP amido transferase; 100 μM): 10+2% of Control; Dihydrofolate reductase (Dihydrofolate reductase; 25 μM): 105+5% of Control; d(GTP) (L1210 d[NTP] pool levels): 74+5% of Control; DNA synthesis (L1210 DNA synthesis; 25 μM): 98+6% of Control; DNA synthesis (L1210 DNA synthesis; 100 μM): 33+5% of Control; IMP dehydrogenase (IMP dehydrogenase; 100 μM): 70+4% of Control
O=S(=O)(O)c1cc2c(O)c(c1)Cc1cc(S(=O)(=O)O)cc(c1O)Cc1cc(S(=O)(=O)O)cc(c1O)Cc1cc(S(=O)(=O)O)cc(c1O)Cc1cc(S(=O)(=O)O)cc(c1O)Cc1cc(S(=O)(=O)O)cc(c1O)C2 [GI-2029]	100+5% of Control	98+6% of Control	80+3% of Control	71+3% of Control	30+3% of Control	127+6% of Control	99+6% of Control	96+ 5% of Control	most potent activity	1362 nM	57+3% of Control	–	27+3% of Control	78+5% of Control	–	68+5% of Control	98+5% of Control	103+5% of Control	78+3% of Control	270+5% of Control	Aspartate transcarbamylase ([1]; 50 μM): 100+5% of Control; Dihydrofolate reductase (Dihydrofolate reductase; 50 μM): 108+5% of Control; Pyrimidine de novo synthesis ([2]; 100 μM): 93+7% of Control; Carbamyl phosphate synthetase ([5]; 100 μM): 72+3% of Control; d(CTP) (L1210 d[NTP] pool levels): 96+ 5% of Control; tRNA polymerase (tRNA polymerase; 50 μM): 98+5% of Control; IMP dehydrogenase (IMP dehydrogenase; 50 μM): 184+6% of Control
COc1c2cc(S(=O)(=O)[O-])cc1Cc1cc(S(=O)(=O)[O-])cc(c1OC)Cc1cc(S(=O)(=O)[O-])cc(c1OC)Cc1cc(S(=O)(=O)[O-])cc(c1OC)Cc1cc(S(=O)(=O)[O-])cc(c1OC)Cc1cc(S(=O)(=O)[O-])cc(c1OC)Cc1cc(S(=O)(=O)[O-])cc(c1OC)Cc1cc(S(=O)(=O)[O-])cc(c1OC)C2.[Na+].[Na+].[Na+].[Na+].[Na+].[Na+].[Na+].[Na+] [GI-2021]	101+6% of Control	98+4% of Control	64+4% of Control	59+3% of Control	61+4% of Control	76+4% of Control	98+6% of Control	–	–	777 nM	–	32+3% of Control	26+3% of Control	94+5% of Control	89+5% of Control	65+ 4% of Control	88+6% of Control	98+5% of Control	77+5% of Control	124+4% of Control	Aspartate transcarbamylase ([1]; 50 μM): 100+5% of Control; Protein synthesis (L1210 protein synthesis; 25 μM): 80+4% of Control; PRPP amido transferase (PRPP amido transferase; 25 μM): 62+5% of Control; dihydrofolate reductase activity reduced (Dihydrofolate reductase; 100 μM after hr): 24%; Pyrimidine de novo synthesis ([2]; 100 μM): 88+5% of Control; d(CTP) (L1210 d[NTP] pool levels): 67+5% of Control; d(GTP) (L1210 d[NTP] pool levels): 79+4% of Control; tRNA polymerase (tRNA polymerase; 50 μM): 85+5% of Control; tRNA polymerase (tRNA polymerase; 100 μM): 76+4% of Control; DNA synthesis (L1210 DNA synthesis; 25 μM): 105+6% of Control; DNA synthesis (L1210 DNA synthesis; 100 μM): 39+5% of Control
